Values joined by “and” are separate entries in the source; they are usually repeats but may differ in a detail not shown here. Equal values may be shown once.
Test system: 425362-245-T-J1 tumor spheroids, viability % test/control
Assay: Anticancer human tumor 425362-245-T-J1 patient-derived melanoma cell line growth inhibition
Conditions: spheroids with HUVEC and MSC; for viability, T/C: stronger effect = lower value
Procedure, shortened: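 Complex spheroids of malignant cells with endothelial cells and mesenchymal stem cells; agents alone or combined, from near clinical Cmax (or 10 microM if unknown) down in half-log steps, 0.25% DMSO final.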
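Also: spheroids exposed to agents for 7 days.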

## [2H]c1nc(C)nc([2H])c1-c1cc(NC[C@@H](C)c2cccc3c(C(=O)NC)ccnc23)ncn1
Compound 0.0316 µM
  viability, T/C: 103% and 96.9% and 88.3%
Compound 0.1 µM
  viability, T/C: 97.1% and 90.8% and 81.5%
Compound 0.316 µM
  viability, T/C: 112% and 98.8% and 69.9%
Compound 1 µM
  viability, T/C: 108% and 104% and 63.5%
Compound 3.16 µM
  viability, T/C: 110% and 96.8% and 52.8%
Compound 10 µM
  viability, T/C: 103% and 96.5% and 25.2%
Curve of compound
  IC50: > 10000 nM and 2820 nM

## O=C(c1cc(Cc2n[nH]c(=O)c3ccccc23)ccc1F)N1CCN(C(=O)C2CC2)CC1 + COc1cc2c(cc1O)CCNC21CSC2c3c(OC(C)=O)c(C)c4c(c3C(COC1=O)N1C(O)C3Cc5cc(C)c(OC)c(O)c5C(C21)N3C)OCO4
Curve of first compound, second compound 30 pM
  IC50: 2110 nM
Curve of first compound, second compound 94.9 pM
  IC50: 1420 nM
Curve of first compound, second compound 0.0003 µM
  IC50: < 94.9 nM
Curve of first compound, second compound 0.000949 µM
  IC50: < 94.9 nM
Curve of first compound, second compound 0.003 µM
  IC50: < 94.9 nM
Second compound 30 pM, first compound 0.0949 µM
  viability, T/C: 87.2%
Second compound 30 pM, first compound 0.3 µM
  viability, T/C: 93.6%
Second compound 30 pM, first compound 0.949 µM
  viability, T/C: 67.9%
Second compound 30 pM, first compound 3 µM
  viability, T/C: 43.4%
Second compound 30 pM, first compound 9.49 µM
  viability, T/C: 10.1%
Second compound 30 pM, first compound 30 µM
  viability, T/C: 6.76%
Second compound 94.9 pM, first compound 0.0949 µM
  viability, T/C: 83.1%
Second compound 94.9 pM, first compound 0.3 µM
  viability, T/C: 79.2%
Second compound 94.9 pM, first compound 0.949 µM
  viability, T/C: 56.2%
Second compound 94.9 pM, first compound 3 µM
  viability, T/C: 36.3%
Second compound 94.9 pM, first compound 9.49 µM
  viability, T/C: 5.46%
Second compound 94.9 pM, first compound 30 µM
  viability, T/C: 4.13%
Second compound 0.0003 µM, first compound 0.0949 µM
  viability, T/C: 32.6%
Second compound 0.0003 µM, first compound 0.3 µM
  viability, T/C: 35.5%
Second compound 0.0003 µM, first compound 0.949 µM
  viability, T/C: 22.8%
Second compound 0.0003 µM, first compound 3 µM
  viability, T/C: 7.06%
Second compound 0.0003 µM, first compound 9.49 µM
  viability, T/C: 1.54%
Second compound 0.0003 µM, first compound 30 µM
  viability, T/C: 1.07%
Second compound 0.000949 µM, first compound 0.0949 µM
  viability, T/C: 0.47%
Second compound 0.000949 µM, first compound 0.3 µM
  viability, T/C: 0.29%
Second compound 0.000949 µM, first compound 0.949 µM
  viability, T/C: 0.17%
Second compound 0.000949 µM, first compound 3 µM
  viability, T/C: 0.09%
Second compound 0.000949 µM, first compound 9.49 µM
  viability, T/C: 0.04%
Second compound 0.000949 µM, first compound 30 µM
  viability, T/C: 0.16%
Second compound 0.003 µM, first compound 0.0949 µM
  viability, T/C: 0.3%
Second compound 0.003 µM, first compound 0.3 µM
  viability, T/C: 0.32%
Second compound 0.003 µM, first compound 0.949 µM
  viability, T/C: 0.26%
Second compound 0.003 µM, first compound 3 µM
  viability, T/C: 0.14%
Second compound 0.003 µM, first compound 9.49 µM
  viability, T/C: 0.15%
Second compound 0.003 µM, first compound 30 µM
  viability, T/C: 0.3%

## COc1cc2c(cc1O)CCNC21CSC2c3c(OC(C)=O)c(C)c4c(c3C(COC1=O)N1C(O)C3Cc5cc(C)c(OC)c(O)c5C(C21)N3C)OCO4 (stereo not drawn)
Compound 30 pM
  viability, T/C: 98% [middle of 10 runs]
Compound 94.9 pM
  viability, T/C: 95.6% [middle of 10 runs]
Compound 0.0003 µM
  viability, T/C: 40.8% [middle of 10 runs]
Compound 0.000949 µM
  viability, T/C: 0.32% [middle of 9 runs]
Compound 0.003 µM
  viability, T/C: 0.21% [middle of 9 runs]
Compound alone, run of 10/25/2019
  IC50: 0.243 nM [middle of 9 runs]

## Cc1sc2c(c1C)C(c1ccc(Cl)cc1)=NC(CC(=O)Nc1ccc(O)cc1)c1nnc(C)n1-2 (stereo not drawn) + Cn1nnc2c(C(N)=O)ncn2c1=O
Curve of first compound, second compound 1 µM
  IC50: 82.7 nM
Curve of first compound, second compound 3.16 µM
  IC50: 86.4 nM
Curve of first compound, second compound 10 µM
  IC50: 108 nM
Curve of first compound, second compound 31.6 µM
  IC50: 108 nM
Curve of first compound, second compound 100 µM
  IC50: 85.7 nM
Second compound 1 µM, first compound 0.00949 µM
  viability, T/C: 85.8%
Second compound 1 µM, first compound 0.03 µM
  viability, T/C: 86.8%
Second compound 1 µM, first compound 0.0949 µM
  viability, T/C: 44.5%
Second compound 1 µM, first compound 0.3 µM
  viability, T/C: 11.4%
Second compound 1 µM, first compound 0.949 µM
  viability, T/C: 4.19%
Second compound 1 µM, first compound 3 µM
  viability, T/C: 4.22%
Second compound 3.16 µM, first compound 0.00949 µM
  viability, T/C: 110%
Second compound 3.16 µM, first compound 0.03 µM
  viability, T/C: 86.2%
Second compound 3.16 µM, first compound 0.0949 µM
  viability, T/C: 47.6%
Second compound 3.16 µM, first compound 0.3 µM
  viability, T/C: 15.7%
Second compound 3.16 µM, first compound 0.949 µM
  viability, T/C: 3.45%
Second compound 3.16 µM, first compound 3 µM
  viability, T/C: 2.88%
Second compound 10 µM, first compound 0.00949 µM
  viability, T/C: 106%
Second compound 10 µM, first compound 0.03 µM
  viability, T/C: 90%
Second compound 10 µM, first compound 0.0949 µM
  viability, T/C: 57.5%
Second compound 10 µM, first compound 0.3 µM
  viability, T/C: 8.87%
Second compound 10 µM, first compound 0.949 µM
  viability, T/C: 3.57%
Second compound 10 µM, first compound 3 µM
  viability, T/C: 2.37%
Second compound 31.6 µM, first compound 0.00949 µM
  viability, T/C: 103%
Second compound 31.6 µM, first compound 0.03 µM
  viability, T/C: 92%
Second compound 31.6 µM, first compound 0.0949 µM
  viability, T/C: 54.1%
Second compound 31.6 µM, first compound 0.3 µM
  viability, T/C: 16.9%
Second compound 31.6 µM, first compound 0.949 µM
  viability, T/C: 4%
Second compound 31.6 µM, first compound 3 µM
  viability, T/C: 2.29%
Second compound 100 µM, first compound 0.00949 µM
  viability, T/C: 84.8%
Second compound 100 µM, first compound 0.03 µM
  viability, T/C: 90.5%
Second compound 100 µM, first compound 0.0949 µM
  viability, T/C: 45.6%
Second compound 100 µM, first compound 0.3 µM
  viability, T/C: 10.6%
Second compound 100 µM, first compound 0.949 µM
  viability, T/C: 3.44%
Second compound 100 µM, first compound 3 µM
  viability, T/C: 1.57%

From PubChem BioAssay AID1845198 (Molecular Pharmacology Branch, DTP, NCI, 2023)
